We go through 21 compounds from ChEMBL document CHEMBL3351661, “Structure-activity relationship studies of antiplasmodial aminomethylthiazoles” (Bioorg Med Chem Lett, 2014).

pIC50: −log10 of the molar value. Converted amounts (≈) assume the structure as drawn.

Series [1] concerns Plasmodium falciparum. Kind of series: microbe, parasite or virus in culture. Conditions: NF54.
Description: Antiplasmodial activity against chloroquine-sensitive Plasmodium falciparum NF54 asexual erythrocyte stages by parasite lactate dehydrogenase assay
Series [2] can be described thus: Aqueous kinetic solubility at pH 7.4 by turbidimetric assay. In kind it is physicochemical. Conditions: read-out: Kinetic_solubility.

In the case of `CC(C)(C)c1cc(C(=O)Nc2nc(CN)cs2)n(Cc2ccccc2)n1`, in series [1], the pIC50 is 7.69. The solubility kinetic in series [2] is > 200 µg/mL.
In the same order, the values of `CC(C)(C)c1cc(C(=O)Nc2cccc(CN)n2)n(Cc2ccccc2)n1` are 6.90 and 40 µg/mL (≈ 110 µM).
The like results for `CC(C)(C)c1cc(C(=O)Nc2ncc(CN)s2)n(Cc2ccccc2)n1` were, in that order, 5.04 and 80 µg/mL (≈ 217 µM).
Compound `CC(C)(C)c1cc(C(=O)Nc2ccc(CN)c3ccccc23)n(Cc2ccccc2)n1` gave a pIC50 in series [1] of 5.12.
`CC(C)(C)c1cc(C(=O)Nc2nc(CN)cs2)n(Cc2ccc(Cl)cc2)n1` showed a pIC50 in series [1] of 4.92. For the same compound, in series [2], the solubility kinetic is > 200 µg/mL.
In the same order, the values of `CC(C)(C)c1cc(C(=O)Nc2nc(CN)cs2)n(Cc2ccccc2Cl)n1` are 5.74 and 80 µg/mL (≈ 198 µM).
The compound `CC(C)(C)c1cc(C(=O)Nc2nc(CN)cs2)n(Cc2ccc(Br)cc2)n1` had a pIC50 in series [1] of 4.89. For the same compound, in series [2], the solubility kinetic was > 200 µg/mL.
In series [1], `CC(C)(C)c1cc(C(=O)Nc2nc(CN)cs2)n(Cc2ccc(F)cc2F)n1` had a pIC50 of 5.33.
In series [1], `CC(C)(C)c1ccc(Cn2nc(C(C)(C)C)cc2C(=O)Nc2nc(CN)cs2)cc1` gave a pIC50 of 5.59. Moreover, the solubility kinetic in series [2] is 10 µg/mL (≈ 23.5 µM).
The compound `CC(C)(C)c1cc(C(=O)Nc2nc(CN)cs2)n(-c2ccccc2)n1` had a pIC50 in series [1] of 4.17. For the same compound, the solubility kinetic in series [2] was determined as 160 µg/mL (≈ 450 µM).
In the same order, the values of `NCc1csc(NC(=O)c2ccnn2Cc2ccccc2)n1` are 4.36 and > 200 µg/mL.
The like results for `Cc1cc(C(=O)Nc2nc(CN)cs2)n(Cc2ccccc2)n1` were, in that order, 4.70 and 160 µg/mL (≈ 489 µM).
The like results for `Cc1ccc(-c2cc(C(=O)Nc3nc(CN)cs3)n(Cc3ccccc3)n2)cc1` were, in that order, 5.69 and 40 µg/mL (≈ 99.1 µM).
The compound `NCc1csc(NC(=O)c2cccs2)n1` showed a pIC50 in series [1] of 4.04. Also, the solubility kinetic in series [2] was determined as 80 µg/mL (≈ 334 µM).
In the same order, the values of `N#Cc1ccc(C(=O)Nc2nc(CN)cs2)cc1` are 3.84 and 20 µg/mL (≈ 77.4 µM).
The like results for `NCc1csc(NC(=O)c2ccc(C(F)(F)F)cc2)n1` were, in that order, 4.40 and 40 µg/mL (≈ 133 µM).
Compound `NCc1csc(NC(=O)c2ccc(OC(F)(F)F)cc2)n1` showed a pIC50 in series [1] of 4.36. Further, in series [2], the solubility kinetic is 40 µg/mL (≈ 126 µM).
In the same order, the values of `NCc1csc(NC(=O)c2cscn2)n1` are 3.83 and 80 µg/mL (≈ 333 µM).
In the same order, the values of `NCc1csc(NC(=O)c2ccc(F)cc2)n1` are 3.91 and 80 µg/mL (≈ 318 µM).
The like results for `NCc1csc(NC(=O)c2cnccn2)n1` were, in that order, 3.76 and > 200 µg/mL.
The compound `C[C@H]1[C@H](OC(=O)CCC(=O)O)O[C@@H]2O[C@@]3(C)CC[C@H]4[C@H](C)CC[C@@H]1[C@@]24OO3` [ARTESUNATE] gave a pIC50 in series [1] of 8.28.

Broadly, the pIC50 is the IC50 on a negative log10 scale, so that one unit is a factor of ten. Low values mean a high IC50, high ones a low IC50.
